From patent US5661182A, “Method for lowering oxygen affinity of hemoglobin in redcell suspensions, in whole blood and in vivo” (Virginia Commonwealth University, priority 1995, dated 1997)

How the values were obtained:
[1] = target: bovine hemoglobin (Bos taurus, UniProt P01966+P02070); test: Oxygen equilibrium of isolated bovine Hb solutions (p50); type: biochemical; conditions: for p50 shift at increasing chloride concentration / Hb bovine(p50): bovine Hb solution; for p50 shift at increasing chloride concentration: 0.5 mM, chloride 0-400 mM; for Hb bovine(p50): effector 0.5 mM, pH 7.2, 100 mM NaCl, 25 °C
Sequence of bovine hemoglobin (P01966 whole entry): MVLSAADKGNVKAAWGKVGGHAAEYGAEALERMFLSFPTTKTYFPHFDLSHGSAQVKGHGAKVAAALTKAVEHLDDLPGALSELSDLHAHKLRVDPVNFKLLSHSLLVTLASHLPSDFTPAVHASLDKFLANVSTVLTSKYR
Sequence of bovine hemoglobin (P02070 whole entry): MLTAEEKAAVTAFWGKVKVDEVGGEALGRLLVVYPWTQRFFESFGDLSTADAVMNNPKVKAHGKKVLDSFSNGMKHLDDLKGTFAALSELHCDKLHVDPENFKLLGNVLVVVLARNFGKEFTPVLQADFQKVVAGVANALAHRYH
Description: (§1) L3,5 and L3,4,5 were provided by Dr. Lalezari (Montefiore Hospital, New York); RSR-4 [2-[4-[[(3,5-dichloroanilino)carbonyl]methyl]phenoxy]-2-methylpropionic acid]and RSR13 [2-4-[[(3,5- dimethylanilino)carbonyl]methyl]phenoxy]-2-methylpropionic acid] have been synthesized following the procedure described in Randad et al. (J. Med. Chem. 34,752 (1991)). Human serum albumin (HSA), bovine serum albumin (BSA) and 4,4'diisothiocyanatostilbene-2,2'-disulfonate (DIDS) were purchased from Sigma (St. Louis, Mo.). Due to their low solubility in aqueous buffer, 10 mM stock solutions of the compounds were prepared in a slight exccess of sodium bicarbonate and back-titrated to pH 7.4. For example, RSR-4 or RSR-13 was dissolved at 60° C. in a 140 mM NaCl and 50 mM bis-Tris buffer at room temperature upon progressive addition of NaHCO3 to obtain 10 mM stock solutions. The pH was carefully adjusted to 7.4 after complete solubilization and before use of the solutions. Fresh solutions were prepared each week. Stock solutions of DIDS (1 mM) were prepared, in the dark, on the day of the experiments in a pH 7.4 buffer. Human serum albumin (defatted HSA) and bovine serum albumin (BSA) were prepared freshly as 1 mM stock solutions, pH 7.4. Equilibrium Measurements. The allosteric modulation of the effectors on freshly prepared solutions of hemoglobin or red cell suspensions was measured by the change in p50, the partial pressure of oxygen for half-saturation. Oxygen equilibrium curves (OEC) were carried out with the Hemox analyzer (TCS, Southampton, Pa.) under the following conditions: pH 7.4, 140 mM NaCl and 50 mM bis-Tris buffer at 37° C. In all experiments, the concentration of hemoglobin in the red cell suspensions was 20-25 μM hemoglobin tetramer (Hb4) as measured by Drabkin's method (cyanomethemoglobin) at the end of each recording. The final concentration of the allosteric effector in the cuvette was 0.5 mM, resulting in an effector/Hb4 ratio of 20 in the absence of albumin. OEC were also made in the same buffer containing 12.5, 25, 50, and 100 μM HSA (for human red cell suspensions) or BSA (for bovine cell suspensions). The serum albumin experiments were carried out with traces of an antifoaming agent. This agent has no deleterious effect on the red cell suspensions. The molar ratio of albumin to tetrameric hemoglobin was varied from 0.5 (at 12.5 μM HSA) to 4 (at 100 μM HSA); in whole blood this ratio is approximately 0.3 (0.7 mM albumin plus plasma proteins/2.25 mM Hb4). Therefore, the concentration of albumin used in the present studies was always larger relative to tetrameric hemoglobin than that found in whole blood.
Bovine Red Cell Studies. Table 2 presents data for oxygen binding measurements for fresh bovine red blood cells and isolated Hb solutions on addition of the effectors L3,5, RSR-4, and RSR-13. The experimental conditions used were the same as described in conjunction with Table 1 for human red blood cells. The oxygen equilibrium curves for Hb solutions were made at pH 7.2, 100 mM NaCl and 50 mM bis-Tris buffer at 25° C. Catalase (20 μg/mL) and 50 μM EDTA were added to oppose oxidation of the hemes. The concentration of the effectors was 0.5 mM in all conditions. In Table 2, BSA is bovine serum albumin and P50 (mmHg) is the pO2 for 50% saturation.

[2] = test system: purified Hb Yakima; test: Effect on purified Hb Yakima; type: biochemical, human
[3] = target: hemoglobin in human red blood cells (Homo sapiens, UniProt P68871+P69905); test: Calculated oxygen delivery index of human red blood cell suspensions (ΔY); type: cell-based; conditions: human RBC, effector 0.5 mM
Sequence of hemoglobin in human red blood cells (P69905 whole entry): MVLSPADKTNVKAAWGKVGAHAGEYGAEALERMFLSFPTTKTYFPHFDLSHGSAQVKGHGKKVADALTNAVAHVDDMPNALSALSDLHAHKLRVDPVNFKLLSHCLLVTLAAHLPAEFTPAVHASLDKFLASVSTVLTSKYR
Sequence of hemoglobin in human red blood cells (P68871 whole entry): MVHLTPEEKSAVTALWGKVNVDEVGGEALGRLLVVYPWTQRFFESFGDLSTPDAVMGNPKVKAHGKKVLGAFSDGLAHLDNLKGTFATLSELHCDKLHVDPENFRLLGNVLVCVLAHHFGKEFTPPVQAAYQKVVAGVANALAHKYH
Description: as §1
In FIG. 2, curve (1) is the control, curve (2) is the suspension plus 0.5 mM RSR-4, curve (3) is the suspension plus 0.5 mM RSR-4 plus 50 μM HSA, and curve […] is the suspension plus 0.5 mM RSR-4 plus 100 μM HSA. The concentration ratios of albumin/Hb are above those found in vivo. For example, in curve (3) serum albumin is about six times and in curve (4) about twelve times in excess above the concentration ratio of albumin/Hb found in vivo. The vertical lines indicate the physiological pO2 values in the arterial blood (90 mmHg) and in the mixed venous blood (40 mmHg). The change in oxygen saturation between these two lines allows an estimation of the capability of the red blood cells to deliver oxygen to tissues (ΔY (%), as discussed below in conjunction with Table 4).
In Vivo Estimates for Percent of Oxygen Delivery. Table 4 presents the calculated oxygen delivery index for red blood cell suspensions in the presence or absence of 0.5 mM L3,5 or RSR-4. The experimental conditions for the experiments of Table 4 were the same as those used for Table 1. The oxygen delivery index was calculated from the experimental oxygen binding curves as the difference in hemoglobin oxygen saturation (percent) corresponding to the pO2 in the arterial blood (90 mmHg) and that in the mixed venous blood (40 mMHg). […]

[4] = test system: hemoglobin in rat blood; test: In vivo effect in conscious rats: oxygen dissociation curve of blood after 2-h infusion; conditions: for sign of distress: rats, during infusion
Experimental: In Vivo Studies. The in vivo effect of RSR-4 and RSR-13 was assessed in conscious rats that received (through a chronic femoral vein catheter) an initial 85.7±3.7 mg/kg dose of RSR-4 or 84.0±4.0 mg/kg dose of RSR-13, followed by 85.7±3.7mg/(kg h) RSR-4 or 84.0±4.0 mg/(kg h) RSR13, respectively, for 2 h. The oxygen dissociation curve was measured before infusion with a Hemox analyzer and, after the 2-h infusion, was manually measured with a tonometer and visible spectroscopy to avoid a dilution step (used with the Hemox analyzer) that would disrupt the equilibrium between the drug and erythrocytes. Tonometry was performed at a constant/pCO2 of 40 mmHg at 37° C. The pH of the blood was 7.443±0.012 (n=5) for the RSR-13 experiment and 7.412±0.098 (n=7) for the RSR-4 experiment. Control rats received an infusion of buffer solution with NaHCO3. A slight molar excess of NaHCO3 was used to better solubilize RSR-4.

[5] = test system: human red cells; test: Hemolysis of human red cells in vitro; type: cell-based
[6] = test system: rat erythrocytes; test: Hemolysis of rat erythrocytes
[7] = test system: bovine red cells; test: Hemolysis of bovine red cells in vitro; type: cell-based

p50 shift at increasing chloride concentration [1]	Hb bovine(p50) [1]	ΔY (oxygen delivery index) ([3]; 50 μM HSA)	ΔY (oxygen delivery index) ([3]; 100 μM HSA)	ΔY (oxygen delivery index) ([3]; no HSA)	sign of distress [4]	potency in Hb solution ([1]; Hb solution studies, Table 2)	Compound	state of purified Hb Yakima in the presence of effector [2]	p50 ([4]; rats (n=7), 85.7±3.7 mg/kg iv then 85.7±3.7 mg/(kg h) for 2 h, control value 36.4±1.6)	Hill coefficient ([4]; rats (n=7), 85.7±3.7 mg/kg iv then 85.7±3.7 mg/(kg h) for 2 h, initial 2.66±0.13)	hemolysis [5]	hemolysis [6]	hemolysis [7]	Hill coefficient ([4]; rats (n=5), 84 mg/kg then 84 mg/(kg h) for 2 h, initial 2.62±0.10)	p50 ([4]; rats (n=5), 84 mg/kg then 84 mg/(kg h) for 2 h, initial 36.0±2.7)
identical at all chloride concentrations	37 mmHg	30%	25%	42%			CC(C)(Oc1ccc(NC(=O)Nc2cc(Cl)cc(Cl)c2)cc1)C(=O)O [L3,5, reference compound]	remains locked in the high-affinity R-state							
identical at all chloride concentrations	59 mmHg	39%	34%	41.5%	did not show any sign of distress	significantly larger than that of L3,5	CC(C)(Oc1ccc(CC(=O)Nc2cc(Cl)cc(Cl)c2)cc1)C(=O)O [RSR-4, 2-[4-[[(3,5-dichloroanilino)carbonyl]methyl]phenoxy]-2-methylpropionic acid]	remains locked in the high-affinity R-state	60.7±8.1 mmHg	1.74±0.08	No hemolysis	Significant hemolysis	No hemolysis		
					did not show any sign of distress		Cc1cc(C)cc(NC(=O)Cc2ccc(OC(C)(C)C(=O)O)cc2)c1 [RSR-13]							1.73±0.08	61.4±5.8 mmHg
